Reference: patent publication US20230097992A1, “BIVALENT EGF FUSION TOXINS” (The Regents of the University of Colorado, a body corporate, priority 2020, published 2023)
pIC50: −log10 of the molar value.

Test system: human EGFR-positive HNSCC cell line TU167
Test: CellTiter-Glo Luminescent Cell Viability Assay, TU167
Assay type: cell-based
Conditions: read-out: IC50 to HNSCC cell lines (Erlotinib)
Procedure: FIG. 9 presents the data from in vitro efficacy analysis of the human EGF fusion toxins against human EGFR-positive HNSCC cell lines using CellTiter-Glo® Luminescent Cell Viability Assay (Promega) Y-axis: inhibition rate of the cell viability by determining the number of viable cells based on the quantification of the ATP present. X-axis: plated fusion toxin concentration. Cycloheximide (1.25 mg/mL) was used as a positive control. The negative control contained cells without fusion toxin. Data were from three individual experiments for each HNSCC cell line. Error bars indicate SD.
Y-axis: inhibition rate of the cell viability by determining the number of viable cells based on the quantification of the ATP present. […] Cycloheximide (1.25 mg/mL) was used as a positive control. […]
In vitro efficacy analysis of the human EGF fusion toxins (mEGF-IT and bEGF-IT) to the human HNSCC tumor cell lines was performed using CellTiter-Glo® Luminescent Cell Viability Assay (Promega Corporation, Madison, Wis.) as described previously (Zheng et al. (2017), Mol. Oncol. 11, 584-594, which is hereby incorporated by reference in its entirety). This cell viability assay measures the luminescence produced because of ATP production from metabolically active cells. […] The luminescence signals were recorded using BioTek Synergy LX Multi-Mode Reader.
IC50 was determined using nonlinear regression (curve fit) of Prism. […]

## C#Cc1cccc(Nc2ncnc3cc(OCCOC)c(OCCOC)cc23)c1 [Erlotinib]
  pIC50: 6.39
